Test results from the kinase profiling compilation of Christmann-Franck et al. (2016).
Blank lines part the entries; values can stand above or below the compound they belong to.

Columns and labels:
Assay in all cases: radiometric filter-binding kinase assay
[1] = tested on: AKT1 (human), P31749 [S473D]
MKNK2 (human) = MKNK2 (human) (UniProt Q9HBH9)
RPS6KA1 KD1 KD2 (human) = RPS6KA1 KD1 KD2 (human) (UniProt Q15418)
PIM1 (human) = PIM1 (human) (UniProt P11309)
MARK1 (human) = MARK1 (human) (UniProt Q9P0L2)
STK3 (human) = STK3 (human) (UniProt Q13188)
MAPK14 (human) = MAPK14 (human) (UniProt Q16539)
Chain of MAPK14 (human) (Q16539 whole entry, looked up): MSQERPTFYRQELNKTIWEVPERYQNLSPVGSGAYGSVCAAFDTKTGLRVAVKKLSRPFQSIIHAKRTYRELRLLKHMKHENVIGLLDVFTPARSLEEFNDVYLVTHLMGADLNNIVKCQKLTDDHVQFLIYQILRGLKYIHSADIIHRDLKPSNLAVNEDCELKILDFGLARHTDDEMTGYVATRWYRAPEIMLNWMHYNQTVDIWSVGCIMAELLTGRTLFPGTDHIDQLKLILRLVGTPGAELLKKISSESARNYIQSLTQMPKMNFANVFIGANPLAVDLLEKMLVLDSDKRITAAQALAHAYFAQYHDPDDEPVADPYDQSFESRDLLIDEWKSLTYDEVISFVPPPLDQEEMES

MAPK9 (human) = MAPK9 (human) (UniProt P45984)
MAP3K11 (human) = MAP3K11 (human) (UniProt Q16584)
Chain of MAP3K11 (human) (Q16584 whole entry, looked up): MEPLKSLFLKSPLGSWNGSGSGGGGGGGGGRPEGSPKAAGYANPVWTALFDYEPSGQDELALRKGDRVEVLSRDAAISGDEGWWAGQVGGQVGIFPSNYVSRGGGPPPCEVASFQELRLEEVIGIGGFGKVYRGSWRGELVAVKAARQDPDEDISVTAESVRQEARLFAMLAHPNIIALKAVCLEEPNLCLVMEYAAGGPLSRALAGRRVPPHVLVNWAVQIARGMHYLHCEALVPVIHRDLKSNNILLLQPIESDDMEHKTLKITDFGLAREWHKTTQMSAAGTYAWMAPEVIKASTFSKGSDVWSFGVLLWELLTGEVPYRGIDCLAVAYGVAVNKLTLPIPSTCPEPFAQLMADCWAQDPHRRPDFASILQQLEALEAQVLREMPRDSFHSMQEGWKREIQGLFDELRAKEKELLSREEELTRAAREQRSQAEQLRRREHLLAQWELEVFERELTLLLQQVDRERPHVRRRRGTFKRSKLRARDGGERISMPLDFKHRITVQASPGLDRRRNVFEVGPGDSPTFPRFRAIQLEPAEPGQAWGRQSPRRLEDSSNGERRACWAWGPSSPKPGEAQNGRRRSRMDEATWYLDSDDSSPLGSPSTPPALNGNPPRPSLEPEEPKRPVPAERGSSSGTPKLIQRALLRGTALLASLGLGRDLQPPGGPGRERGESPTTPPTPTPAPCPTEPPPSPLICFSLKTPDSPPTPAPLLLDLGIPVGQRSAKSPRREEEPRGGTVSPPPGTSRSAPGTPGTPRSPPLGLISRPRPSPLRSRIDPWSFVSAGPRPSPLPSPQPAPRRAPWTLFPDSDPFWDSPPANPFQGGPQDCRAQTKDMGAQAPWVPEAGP

[2] = molecular target: STK11 CAB39 STRADA (human) (UniProt Q9Y376+Q7RTN6+Q15831)
MKNK1 (human) = MKNK1 (human) (UniProt Q9BUB5)
DYRK3 (human) = DYRK3 (human) (UniProt O43781)
MAPK8 (human) = MAPK8 (human) (UniProt P45983)
EPHB2 (human) = EPHB2 (human) (UniProt P29323)
TBK1 (human) = TBK1 (human) (UniProt Q9UHD2)
CaMK1 (human) = CaMK1 (human) (UniProt Q14012)
CHEK2 (human) = CHEK2 (human) (UniProt O96017)
Chain of CHEK2 (human) (O96017 whole entry, looked up): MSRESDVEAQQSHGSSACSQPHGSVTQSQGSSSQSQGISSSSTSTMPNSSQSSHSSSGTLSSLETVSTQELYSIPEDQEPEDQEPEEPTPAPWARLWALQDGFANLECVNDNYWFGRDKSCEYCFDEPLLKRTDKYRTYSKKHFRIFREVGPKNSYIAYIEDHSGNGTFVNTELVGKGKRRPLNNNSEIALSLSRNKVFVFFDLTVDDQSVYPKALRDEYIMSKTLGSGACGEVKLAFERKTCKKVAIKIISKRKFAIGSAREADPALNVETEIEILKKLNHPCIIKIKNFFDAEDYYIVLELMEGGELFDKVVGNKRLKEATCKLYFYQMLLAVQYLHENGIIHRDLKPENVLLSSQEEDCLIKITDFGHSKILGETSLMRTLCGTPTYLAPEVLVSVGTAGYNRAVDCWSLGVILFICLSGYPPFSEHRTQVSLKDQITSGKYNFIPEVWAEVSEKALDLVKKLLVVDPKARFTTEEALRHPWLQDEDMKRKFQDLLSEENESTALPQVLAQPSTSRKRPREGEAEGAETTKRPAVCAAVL

NUAK1 (human) = NUAK1 (human) (UniProt O60285)
Chain of NUAK1 (human) (O60285 whole entry, looked up): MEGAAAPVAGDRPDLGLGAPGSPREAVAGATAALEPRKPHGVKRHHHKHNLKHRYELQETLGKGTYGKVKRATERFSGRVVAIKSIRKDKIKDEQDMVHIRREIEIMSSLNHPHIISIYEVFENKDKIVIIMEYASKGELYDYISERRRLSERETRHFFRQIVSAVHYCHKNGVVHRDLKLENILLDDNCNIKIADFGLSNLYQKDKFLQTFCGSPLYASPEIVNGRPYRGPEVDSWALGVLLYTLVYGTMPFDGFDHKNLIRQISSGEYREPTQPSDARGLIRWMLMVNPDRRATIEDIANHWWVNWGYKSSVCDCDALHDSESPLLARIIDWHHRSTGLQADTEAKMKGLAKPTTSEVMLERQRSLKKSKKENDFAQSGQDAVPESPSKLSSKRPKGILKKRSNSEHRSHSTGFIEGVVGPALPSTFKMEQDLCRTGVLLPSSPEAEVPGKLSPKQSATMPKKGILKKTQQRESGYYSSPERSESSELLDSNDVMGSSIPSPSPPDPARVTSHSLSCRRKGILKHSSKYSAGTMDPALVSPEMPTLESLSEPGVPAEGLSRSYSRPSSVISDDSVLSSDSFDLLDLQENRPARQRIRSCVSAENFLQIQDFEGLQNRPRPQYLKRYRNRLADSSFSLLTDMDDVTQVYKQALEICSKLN

MARK2 (human) = MARK2 (human) (UniProt Q7KZI7); settings: compound 100.0 µM
TTK (human) = TTK (human) (UniProt P33981)
MARK3 (human) = MARK3 (human) (UniProt P27448)
JAK2 JH1 JH2 (human) = JAK2 JH1 JH2 (human) (UniProt O60674)
NEK2 (human) = NEK2 (human) (UniProt P51955)
PAK4 (human) = PAK4 (human) (UniProt O96013)
Chain of PAK4 (human) (O96013 whole entry, looked up): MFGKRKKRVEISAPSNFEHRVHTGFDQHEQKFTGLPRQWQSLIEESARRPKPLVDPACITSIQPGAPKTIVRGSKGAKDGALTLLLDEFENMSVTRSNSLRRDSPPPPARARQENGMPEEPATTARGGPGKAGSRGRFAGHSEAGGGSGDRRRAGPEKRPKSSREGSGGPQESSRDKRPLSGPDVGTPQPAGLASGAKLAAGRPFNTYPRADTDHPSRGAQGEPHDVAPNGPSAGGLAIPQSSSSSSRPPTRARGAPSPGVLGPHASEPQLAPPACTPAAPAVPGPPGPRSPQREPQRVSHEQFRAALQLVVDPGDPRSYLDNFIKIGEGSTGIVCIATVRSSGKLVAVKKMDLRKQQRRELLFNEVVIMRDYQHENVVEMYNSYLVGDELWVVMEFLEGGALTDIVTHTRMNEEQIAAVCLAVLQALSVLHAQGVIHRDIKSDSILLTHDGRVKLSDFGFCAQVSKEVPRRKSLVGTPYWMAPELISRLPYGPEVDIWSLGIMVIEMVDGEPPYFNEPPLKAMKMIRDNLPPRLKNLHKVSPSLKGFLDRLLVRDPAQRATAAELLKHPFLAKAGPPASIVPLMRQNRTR

MAPK3 (human) = MAPK3 (human) (UniProt P27361)
[3] = tested on: RPS6KB1 (human), P23443 [T412E]
Chain of RPS6KB1 (human), P23443 [T412E] (P23443 whole entry T412E, looked up): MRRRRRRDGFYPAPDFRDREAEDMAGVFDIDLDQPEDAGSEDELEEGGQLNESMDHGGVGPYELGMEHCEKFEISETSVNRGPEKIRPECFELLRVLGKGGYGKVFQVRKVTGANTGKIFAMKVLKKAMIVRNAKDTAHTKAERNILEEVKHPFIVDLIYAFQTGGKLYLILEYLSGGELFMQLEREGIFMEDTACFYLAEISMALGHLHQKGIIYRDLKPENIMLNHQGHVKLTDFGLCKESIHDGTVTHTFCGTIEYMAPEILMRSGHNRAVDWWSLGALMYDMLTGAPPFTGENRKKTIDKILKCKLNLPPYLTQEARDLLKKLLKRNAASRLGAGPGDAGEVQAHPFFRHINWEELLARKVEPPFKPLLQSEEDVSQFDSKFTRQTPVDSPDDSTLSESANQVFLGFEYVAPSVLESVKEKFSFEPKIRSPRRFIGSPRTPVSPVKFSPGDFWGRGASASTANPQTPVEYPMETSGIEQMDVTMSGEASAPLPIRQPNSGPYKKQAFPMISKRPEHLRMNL

IKBKE (human) = IKBKE (human) (UniProt Q14164)
Chain of IKBKE (human) (Q14164 whole entry, looked up): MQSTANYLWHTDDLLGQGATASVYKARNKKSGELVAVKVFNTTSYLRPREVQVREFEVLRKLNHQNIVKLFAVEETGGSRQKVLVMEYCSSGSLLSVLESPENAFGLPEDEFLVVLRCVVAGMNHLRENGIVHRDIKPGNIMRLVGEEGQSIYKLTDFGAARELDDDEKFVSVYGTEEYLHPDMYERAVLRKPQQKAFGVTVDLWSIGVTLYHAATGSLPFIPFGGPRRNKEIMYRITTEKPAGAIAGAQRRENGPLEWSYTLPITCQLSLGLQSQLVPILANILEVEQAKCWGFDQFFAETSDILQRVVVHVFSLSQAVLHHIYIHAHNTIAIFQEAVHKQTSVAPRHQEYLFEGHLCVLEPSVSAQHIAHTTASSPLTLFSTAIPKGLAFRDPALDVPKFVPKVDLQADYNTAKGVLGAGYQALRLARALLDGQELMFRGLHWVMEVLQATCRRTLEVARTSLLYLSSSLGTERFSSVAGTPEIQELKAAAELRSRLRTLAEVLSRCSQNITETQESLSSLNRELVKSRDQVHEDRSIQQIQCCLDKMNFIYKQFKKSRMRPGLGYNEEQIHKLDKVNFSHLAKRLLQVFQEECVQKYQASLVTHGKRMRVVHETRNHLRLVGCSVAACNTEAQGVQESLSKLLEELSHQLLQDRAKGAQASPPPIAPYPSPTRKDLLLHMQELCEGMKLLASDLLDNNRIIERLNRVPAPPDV

IKBKB (human) = IKBKB (human) (UniProt O14920)
MAP2K1 (human) = MAP2K1 (human) (UniProt Q02750)
Chain of MAP2K1 (human) (Q02750 whole entry, looked up): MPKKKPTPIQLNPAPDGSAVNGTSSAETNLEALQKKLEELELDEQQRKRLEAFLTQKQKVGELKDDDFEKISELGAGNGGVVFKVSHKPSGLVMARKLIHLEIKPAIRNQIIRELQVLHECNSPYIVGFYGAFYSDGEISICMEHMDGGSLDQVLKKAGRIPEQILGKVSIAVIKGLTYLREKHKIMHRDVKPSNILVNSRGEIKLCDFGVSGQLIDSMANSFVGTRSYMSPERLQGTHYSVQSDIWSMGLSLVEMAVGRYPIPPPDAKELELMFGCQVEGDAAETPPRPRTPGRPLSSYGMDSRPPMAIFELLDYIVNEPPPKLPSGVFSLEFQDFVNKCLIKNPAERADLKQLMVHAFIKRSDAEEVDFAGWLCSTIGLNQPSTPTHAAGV

DYRK1A (human) = DYRK1A (human) (UniProt Q13627)
NTRK1 (human) = NTRK1 (human) (UniProt P04629)
MAPKAPK2 (human) = MAPKAPK2 (human) (UniProt P49137)
CSNK1D (human) = CSNK1D (human) (UniProt P48730)
NEK6 (human) = NEK6 (human) (UniProt Q9HC98)
Chain of NEK6 (human) (Q9HC98 whole entry, looked up): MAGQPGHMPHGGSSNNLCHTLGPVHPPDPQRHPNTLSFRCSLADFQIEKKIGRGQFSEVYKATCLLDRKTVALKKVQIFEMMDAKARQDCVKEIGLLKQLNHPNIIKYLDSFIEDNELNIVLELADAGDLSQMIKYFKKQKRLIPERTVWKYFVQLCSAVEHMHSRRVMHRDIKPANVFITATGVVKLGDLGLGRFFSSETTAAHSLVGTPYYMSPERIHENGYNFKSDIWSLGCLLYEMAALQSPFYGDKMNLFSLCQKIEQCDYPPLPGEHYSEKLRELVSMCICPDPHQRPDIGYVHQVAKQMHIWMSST

IRAK4 (human) = IRAK4 (human) (UniProt Q9NWZ3)

- residual activity ([1]; compound 100.0 µM): 108%
- residual activity (MKNK2 (human); compound 100.0 µM): 100%
- residual activity (RPS6KA1 KD1 KD2 (human); compound 100.0 µM): 99%
- residual activity (PIM1 (human); compound 100.0 µM): 62%
- residual activity (MARK1 (human); compound 100.0 µM): 99%
- residual activity (STK3 (human); compound 100.0 µM): 81%
- residual activity (MAPK14 (human); compound 100.0 µM): 58%
- residual activity (MAPK9 (human); compound 100.0 µM): 112%
- residual activity (MAP3K11 (human); compound 100.0 µM): 83%
- residual activity ([2]; compound 100.0 µM): 126%
- residual activity (MKNK1 (human); compound 100.0 µM): 99%
- residual activity (DYRK3 (human); compound 100.0 µM): 65%
- residual activity (MAPK8 (human); compound 100.0 µM): 113%
- residual activity (EPHB2 (human); compound 100.0 µM): 96%
- residual activity (TBK1 (human); compound 100.0 µM): 94%
- residual activity (CaMK1 (human); compound 100.0 µM): 45%
- residual activity (CHEK2 (human); compound 100.0 µM): 100%
- residual activity (NUAK1 (human); compound 100.0 µM): 44%
- residual activity (MARK2 (human)): 98%
- residual activity (TTK (human); compound 100.0 µM): 90%
- residual activity (MARK3 (human); compound 100.0 µM): 96%
- residual activity (JAK2 JH1 JH2 (human); compound 100.0 µM): 71%
- residual activity (NEK2 (human); compound 100.0 µM): 118%
- residual activity (PAK4 (human); compound 100.0 µM): 70%
- residual activity (MAPK3 (human); compound 100.0 µM): 98%
- residual activity ([3]; compound 100.0 µM): 102%
- residual activity (IKBKE (human); compound 100.0 µM): 94%
- residual activity (IKBKB (human); compound 100.0 µM): 97%
- residual activity (MAP2K1 (human); compound 100.0 µM): 103%
- residual activity (DYRK1A (human); compound 100.0 µM): 113%
- residual activity (NTRK1 (human); compound 100.0 µM): 65%
- residual activity (MAPKAPK2 (human); compound 100.0 µM): 107%
Compound: Cc1cc(N=Nc2cc(S(=O)(=O)O)c(C)cc2C)c(N)cc1O

- residual activity ([1]; compound 0.01 µM): 97%
- residual activity ([1]; compound 0.1 µM): 95%
- residual activity ([1]; compound 1.0 µM): 104%
- residual activity (CSNK1D (human); compound 0.01 µM): 92%
- residual activity (CSNK1D (human); compound 0.1 µM): 93%
- residual activity (CSNK1D (human); compound 1.0 µM): 59%
- residual activity (MKNK2 (human); compound 0.01 µM): 95%
- residual activity (MKNK2 (human); compound 1.0 µM): 91%
- residual activity (NEK6 (human); compound 0.01 µM): 114%
- residual activity (NEK6 (human); compound 0.1 µM): 113%
- residual activity (NEK6 (human); compound 1.0 µM): 101%
- residual activity (RPS6KA1 KD1 KD2 (human); compound 0.01 µM): 99%
- residual activity (RPS6KA1 KD1 KD2 (human); compound 0.1 µM): 102%
- residual activity (RPS6KA1 KD1 KD2 (human); compound 1.0 µM): 65%
- residual activity (PIM1 (human); compound 0.01 µM): 104%
- residual activity (PIM1 (human); compound 0.1 µM): 96%
- residual activity (PIM1 (human); compound 1.0 µM): 98%
- residual activity (MARK1 (human); compound 0.01 µM): 93%
- residual activity (MARK1 (human); compound 0.1 µM): 90%
- residual activity (MARK1 (human); compound 1.0 µM): 86%
- residual activity (STK3 (human); compound 0.01 µM): 99%
- residual activity (STK3 (human); compound 0.1 µM): 116%
- residual activity (STK3 (human); compound 1.0 µM): 93%
- residual activity (MAPK14 (human); compound 0.01 µM): 109%
- residual activity (MAPK14 (human); compound 0.1 µM): 121%
- residual activity (MAPK14 (human); compound 1.0 µM): 114%
- residual activity (MAPK9 (human); compound 0.01 µM): 89%
- residual activity (MAPK9 (human); compound 0.1 µM): 84%
- residual activity (MAPK9 (human); compound 1.0 µM): 90%
- residual activity (MAP3K11 (human); compound 0.01 µM): 88%
- residual activity (MAP3K11 (human); compound 0.1 µM): 104%
- residual activity (MAP3K11 (human); compound 1.0 µM): 87%
- residual activity (IRAK4 (human); compound 0.01 µM): 90%
- residual activity (IRAK4 (human); compound 0.1 µM): 90%
- residual activity (IRAK4 (human); compound 1.0 µM): 83%
- residual activity ([2]; compound 0.01 µM): 107%
- residual activity ([2]; compound 0.1 µM): 132%
- residual activity ([2]; compound 1.0 µM): 105%
- residual activity (MKNK1 (human); compound 0.01 µM): 94%
- residual activity (MKNK1 (human); compound 0.1 µM): 99%
- residual activity (MKNK1 (human); compound 1.0 µM): 98%
- residual activity (DYRK3 (human); compound 0.01 µM): 92%
- residual activity (DYRK3 (human); compound 0.1 µM): 119%
- residual activity (DYRK3 (human); compound 1.0 µM): 91%
- residual activity (MAPK8 (human); compound 0.01 µM): 87%
- residual activity (MAPK8 (human); compound 0.1 µM): 93%
- residual activity (MAPK8 (human); compound 1.0 µM): 91%
- residual activity (EPHB2 (human); compound 0.1 µM): 108%
- residual activity (EPHB2 (human); compound 1.0 µM): 95%
- residual activity (TBK1 (human); compound 0.01 µM): 99%
- residual activity (TBK1 (human); compound 0.1 µM): 101%
- residual activity (TBK1 (human); compound 1.0 µM): 102%
- residual activity (CaMK1 (human); compound 0.01 µM): 116%
- residual activity (CaMK1 (human); compound 0.1 µM): 128%
- residual activity (CaMK1 (human); compound 1.0 µM): 109%
- residual activity (CHEK2 (human); compound 0.01 µM): 93%
- residual activity (CHEK2 (human); compound 0.1 µM): 114%
- residual activity (CHEK2 (human); compound 1.0 µM): 89%
- residual activity (NUAK1 (human); compound 0.01 µM): 100%
- residual activity (NUAK1 (human); compound 0.1 µM): 116%
- residual activity (NUAK1 (human); compound 1.0 µM): 98%
- residual activity (TTK (human); compound 0.01 µM): 93%
- residual activity (TTK (human); compound 0.1 µM): 99%
- residual activity (TTK (human); compound 1.0 µM): 96%
- residual activity (MARK3 (human); compound 0.01 µM): 83%
- residual activity (MARK3 (human); compound 0.1 µM): 87%
- residual activity (MARK3 (human); compound 1.0 µM): 86%
- residual activity (JAK2 JH1 JH2 (human); compound 0.01 µM): 114%
- residual activity (JAK2 JH1 JH2 (human); compound 0.1 µM): 100%
- residual activity (JAK2 JH1 JH2 (human); compound 1.0 µM): 100%
- residual activity (NEK2 (human); compound 0.01 µM): 97%
- residual activity (NEK2 (human); compound 0.1 µM): 97%
- residual activity (NEK2 (human); compound 1.0 µM): 96%
- residual activity (PAK4 (human); compound 0.01 µM): 111%
- residual activity (PAK4 (human); compound 0.1 µM): 98%
- residual activity (PAK4 (human); compound 1.0 µM): 102%
- residual activity (MAPK3 (human); compound 0.01 µM): 120%
- residual activity (MAPK3 (human); compound 0.1 µM): 127%
- residual activity (MAPK3 (human); compound 1.0 µM): 116%
- residual activity ([3]; compound 0.01 µM): 125%
- residual activity ([3]; compound 0.1 µM): 104%
- residual activity ([3]; compound 1.0 µM): 103%
- residual activity (IKBKE (human); compound 0.01 µM): 114%
- residual activity (IKBKE (human); compound 0.1 µM): 106%
- residual activity (IKBKE (human); compound 1.0 µM): 96%
- residual activity (IKBKB (human); compound 0.01 µM): 79%
- residual activity (MAP2K1 (human); compound 0.01 µM): 72%
- residual activity (MAP2K1 (human); compound 0.1 µM): 76%
- residual activity (MAP2K1 (human); compound 1.0 µM): 61%
- residual activity (DYRK1A (human); compound 0.01 µM): 94%
- residual activity (DYRK1A (human); compound 0.1 µM): 92%
- residual activity (DYRK1A (human); compound 1.0 µM): 81%
- residual activity (NTRK1 (human); compound 0.01 µM): 80%
- residual activity (NTRK1 (human); compound 0.1 µM): 83%
- residual activity (NTRK1 (human); compound 1.0 µM): 81%
- residual activity (MAPKAPK2 (human); compound 0.01 µM): 99%
- residual activity (MAPKAPK2 (human); compound 0.1 µM): 102%
- residual activity (MAPKAPK2 (human); compound 1.0 µM): 99%
Compound: O=C(Nc1nc2cc(C(F)(F)F)cc(NC3CC3)n2n1)c1cccnc1
